The source of these data is patent US20210395210A1, “INHIBITION OF BACTERIAL CHAPERONIN SYSTEMS” (THE TRUSTEES OF INDIANA UNIVERSITY, priority 2018, published 2021).

Read-outs that look alike come from different tables or passages of the source.

In one data set the target is T1, E. coli GroEL/ES (Escherichia coli, UniProt P0A6F5).
T1 construct: made in house; host or cells: GroEL in E. coli DH5α; GroES in E. coli BL21 (DE3)
Kind of data set: GroEL/ES-mediated dRho refolding assay. It counts as biochemical. Here is the method: Reagent preparation: For this assay, five primary reagent stocks were prepared: 1) GroEUES-dRho binary complex stock; 2) ATP initiation stock; 3) thiocyanate enzymatic assay stock; 4) formaldehyde quench stock; 5) ferric nitrate reporter stock. Denatured rhodanese (dRho) was prepared by 3-fold dilution of rhodanese (Roche product #R1756, diluted to 10 mg/mL with H2O) with denaturant buffer (12 M Urea, 50 mM Tris-HCl, pH 7.4, and 10 mM DTT). Rhodanese was completely denatured by incubating at room temperature for 45 min. The binary complex solution was prepared by slowly adding the dRho stock to a stirring stock of concentrated GroEL in modified folding buffer (50 mM Tris-HCl, pH 7.4, 50 mM KCl, 10 mM MgCl2, 5 mM Na2S2O3, and 1 mM DTT). The solution was centrifuged at 16,000×g for 5 minutes, and the supernatant was collected and added to a solution of GroES in modified folding buffer to give final protein concentrations of 100 nM GroEL, 120 nM GroES, and 80 nM dRho. The binary complex stock was prepared immediately prior to use. For the ATP initiation stock, ATP solid was diluted into modified folding buffer to a final concentration of 2.0 mM. The thiocyanate enzymatic assay stock was prepared to contain 70 mM KH2PO4, 80 mM KCN, and 80 mM Na2S2O3 in water. The formaldehyde quench solution contained 30% formaldehyde in water. The ferric nitrate reporter stock contained 8.5% w/v Fe(NO3)3 and 11.3% v/v HNO3 in water.
Assay Protocol: First, 10 μL aliquots of the GroEL/ES-dRho complex stock were dispensed into clear, 384-well polystyrene plates. […] The chaperonin-mediated refolding cycle was initiated by addition of 10 μL of ATP stock (reagent concentrations during refolding cycle: 50 nM GroEL, 60 nM GroES, 40 nM dRho, 1 mM ATP, and compounds of 250 μM to 114 nM, 3-fold dilution series). After incubating for 45 minutes at 37° C. for the refolding cycle, 30 μL of the thiocyanate enzymatic assay stock was added and incubated for 60 min at R.T. for the refolded rhodenase enzymatic reporter reaction. The reporter reaction was quenched by adding 10 μL of the formaldehyde quench stock, and then 40 μL of the ferric nitrate reporter stock was added to quantify the amount of thiocyanate produced during the enzymatic reporter reaction, which is proportional to the amount of dRho refolded by GroEL/ES. After incubating at R.T. for 15 min, the absorbance by Fe(SCN)3 was measured at 460 nm using a Molecular Devices SpectraMax Plus384 microplate reader. A second set of baseline control plates were prepared analogously, but without GroEL/ES-dRho protein binary solution, to correct for possible interference from compound absorbance or turbidity. […] Results presented represent the averages of IC50 values obtained from at least quadriplicate (duplicate of duplicate) replicates.
After generating the compound library, we next employed a series of well-established biochemical assays to evaluate compound inhibitory effects against the GroEUES chaperonin system (See FIG. 6 and FIG. 7). We used E. coli GroEUES as the surrogate chaperonin system for refolding of the reporter enzymes malate dehydrogenase (MDH) and rhodanese (Rho). Briefly, binary complexes are formed between GroEL and denatured MDH or Rho, which are then refolded to their native states upon addition of ATP and the GroES co-chaperonin. Enzymatic activities of refolded native MDH or Rho act as coupled reporters of GroEUES refolding functions since in the presence of chaperonin inhibitors, no functional reporter enzymes are generated.

The subject of the next data set is HEK 293 kidney cells. Kind of data set: Kidney cell viability assay (Alamar Blue). The note with it: read-out: Human Cell Viability CC50, Kidney (HEK 293); HEK 293 kidney cells, Alamar Blue, 48 h. As for the experimental part: HEK 293 cells were maintained in MEM medium (Corning Cellgro, 10-009 CV) supplemented with 10% FBS (Sigma, F2242). […] Cells at 80% confluence were harvested and diluted in growth medium, then 45 μL of the THLE-3 cells (1,500 cells/well) or HEK 293 cells (1,500 cells/well) were dispensed per well, and plates were sealed with “Breathe Easy” oxygen permeable membranes (Diversified Biotech) and incubated at 37° C., 5% CO2, for 24 h.
Background: The colour change of resazurin is a common sign of viable cells or microbes.

In data set [1] the test system is S. aureus Rosenbach (ATCC 25923) biofilm formation. Kind of data set: S. aureus biofilm prevention assay (crystal violet). It counts as cell-based. Particulars: Staphylococcus aureus, read-out: S. aureus Proliferation & Biofilm Assay EC50 Preventing Biofilm Formation. Here is the method: The biofilm prevention assay was carried out with S. aureus Rosenbach (ATCC 25923) using a quantitative crystal violet-based adherence assay on 96-well plates. S. aureus (ATCC 25923) bacteria were streaked onto a Tryptic Soy Broth (TSB) agar plate and grown overnight at 37° C. A fresh aliquot of TSB media was inoculated with a single bacterial colony and the cultures were grown overnight at 37° C. with shaking (250 rpm). The overnight culture was then sub-cultured (1:5 dilution) into a fresh aliquot of TSB media supplemented to a final concentration of 0.5% glucose and grown at 37° C. for 1 h with shaking, then diluted into fresh TSB media supplemented with 0.5% glucose to achieve a final OD600 reading of 0.01. Aliquots of the diluted culture (100 μL) were dispensed to 96 well polystyrene plates along with addition of 1 μL test compounds in DMSO. The inhibitor concentration range during the assay was 100 μM to 46 nM (3-fold dilution series). A second set of baseline control plates were prepared analogously, but without any bacteria added, to correct for possible compound absorbance and/or precipitation. Plates were sealed with “Breathe Easy” oxygen permeable membranes (Diversified Biotech) and left to incubate at 37° C. without shaking (stagnant assay) until the biofilm was formed. After 24 h, the planktonic cultures were removed and the plates were washed gently 2-3 times with 200 μl of water. Next, the plates were air dried and the adherent biofilms were stained with 150 μL of crystal violet solution (2.3% crystal violet in 20% Ethanol, Sigma Aldrich #HT90132) for 15 minutes at R.T. The unbound crystal violet stain was removed, then plates were gently washed again with running water and air dried for 10 min. Quantitative assessment of biofilm formation was obtained by adding 100 μL of developer solution (4:1:5 mixture of MeOH:AcOH:H2O) per well. Well absorbance was then read at 595 nm using a Molecular Devices SpectraMax Plus384 microplate reader. […] Results presented represent the averages of EC50 values obtained from at least triplicate experiments.
Establishing biofilms is another effective mechanism by which S. aureus can evade the effects of many current antibiotics, including vancomycin. […] Briefly, test compounds (1, 2, 5, 8, 11, and vancomycin) were incubated with S. aureus bacteria in media supplemented with 0.5% glucose (to support biofilm formation) for 24 h at 37° C. After 24 h, the supernatant was removed, the wells were gently washed, and the biofilm that had formed on the well surfaces were stained with crystal-violet and quantified by UV-Vis spectroscopy.

Where [2] appears, read: log of IC50 (μM scale), with standard deviation.
[3] abbreviates: read-out: Biochemical Assay IC50 GroEL/ES-dRho Refolding.
Setting [4] is: log of IC50 (μM scale), with standard deviation, read-out: log(IC50) GroEL/ES-dRho Refolding (converted).

T1 sequence (P0A6F5 2-548): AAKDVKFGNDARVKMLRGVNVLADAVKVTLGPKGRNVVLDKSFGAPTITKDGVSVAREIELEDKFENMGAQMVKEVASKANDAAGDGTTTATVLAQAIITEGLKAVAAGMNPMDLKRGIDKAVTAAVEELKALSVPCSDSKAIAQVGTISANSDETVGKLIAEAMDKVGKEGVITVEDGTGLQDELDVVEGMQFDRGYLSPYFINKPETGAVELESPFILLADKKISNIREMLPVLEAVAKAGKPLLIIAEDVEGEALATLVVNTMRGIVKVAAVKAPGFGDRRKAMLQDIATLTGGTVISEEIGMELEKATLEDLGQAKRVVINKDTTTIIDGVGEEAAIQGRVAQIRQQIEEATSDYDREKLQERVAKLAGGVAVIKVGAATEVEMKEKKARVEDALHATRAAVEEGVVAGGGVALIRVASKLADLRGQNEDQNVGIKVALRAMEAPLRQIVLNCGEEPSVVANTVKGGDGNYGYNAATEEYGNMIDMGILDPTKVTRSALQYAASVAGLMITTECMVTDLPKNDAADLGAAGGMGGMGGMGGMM

What is called CC50 is the concentration giving 50% cytotoxicity. For `O=C(Nc1ccccc1)c1ccccc1O` [Compound 16, 2-Hydroxy-N-phenylbenzamide], at E. coli GroEL/ES (setting [2]), the “log(IC50) GroEL/ES-dRho Refolding” value is given as above 2. For the same compound, the IC50 at E. coli GroEL/ES (setting [3]) is above 100 µM. Also, the 50% cytotoxic concentration (CC50) with HEK 293 kidney cells was above 100 µM.
As to `O=C(Nc1ccc(Sc2nc3ccccc3s2)cc1)c1ccccc1O` [Compound 8, N-(4-(Benzo[d]thiazol-2-ylthio)phenyl)-2-hydroxybenzamide], the “log(IC50) GroEL/ES-dRho Refolding” value on E. coli GroEL/ES (setting [2]) was found to be 1.94 ± 0.23. The IC50 at E. coli GroEL/ES (setting [3]) turned out to be 87 µM. In addition, the EC50 in data set [1] (ATCC25923, 24 h, media with 0.5% glucose, crystal violet A595) was determined as 0.91 µM.
Regarding `CN[C@H](CC(C)C)C(=O)N[C@H]1C(=O)N[C@@H](CC(N)=O)C(=O)N[C@H]2C(=O)N[C@H]3C(=O)N[C@H](C(=O)N[C@H](C(=O)O)c4cc(O)cc(O)c4-c4cc3ccc4O)[C@H](O)c3ccc(c(Cl)c3)Oc3cc2cc(c3O[C@@H]2O[C@H](CO)[C@@H](O)[C@H](O)[C@H]2O[C@H]2C[C@](C)(N)[C@H](O)[C@H](C)O2)Oc2ccc(cc2Cl)[C@H]1O` [Vancomycin, vancomycin, reference compound], the IC50 at E. coli GroEL/ES is above 100 µM. At E. coli GroEL/ES (setting [2]), the “log(IC50) GroEL/ES-dRho Refolding” value is on record as above 2. Moreover, the EC50 in data set [1] (ATCC25923, 24 h) worked out at 0.54 µM. For the same compound, the CC50 in the data set with HEK 293 kidney cells is above 100 µM.
On to `O=C(Nc1cccc(Cl)c1)c1cc(Br)cc(Br)c1O` [Compound 9, 3,5-Dibromo-N-(3-chlorophenyl)-2-hydroxybenzamide], for which the “log(IC50) GroEL/ES-dRho Refolding” value at E. coli GroEL/ES (setting [2]) worked out at 1.67 ± 0.04. Besides, the IC50 at E. coli GroEL/ES (setting [3]) is 47 µM. Further, the CC50 with HEK 293 kidney cells turned out to be 18 µM.
The like results for `O=C(Nc1ccc(Oc2ccc(Cl)cc2)c(Cl)c1)c1cc(I)cc(I)c1O` [Rafoxanide, rafoxanide, reference compound] were, in that order, 0.34 ± 0.11, 2.2 µM and above 100 µM.
For the compound `O=C(Nc1ccc(Sc2nc3ccccc3s2)c(Cl)c1)c1cccc(Br)c1O` [Compound 2, N-(4-(Benzo[d]thiazol-2-ylthio)-3-chlorophenyl)-3-bromo-2-hydroxybenzamide], the “log(IC50) GroEL/ES-dRho Refolding” value at E. coli GroEL/ES (setting [2]) is recorded as 0.58 ± 0.15. Moreover, at E. coli GroEL/ES (setting [3]), the IC50 amounted to 3.8 µM. Further, in data set [1] (ATCC25923, 24 h), the EC50 amounted to 1 µM.
For the compound `O=C(Nc1ccc(Sc2nc3ccccc3s2)c(Cl)c1)c1cc(Br)cc(Br)c1O` [Compound 1, N-(4-(Benzo[d]thiazol-2-ylthio)-3-chlorophenyl)-3,5-dibromo-2-hydroxybenzamide], the IC50 at E. coli GroEL/ES (setting [4]) was 1.55 µM; at E. coli GroEL/ES (setting [3]) it was 1.5 µM. Further, in data set [1] (ATCC25923, 24 h), the EC50 was 0.72 µM.
In the case of `CC1(C)S[C@@H]2[C@H](NC(=O)[C@H](N)c3ccccc3)C(=O)N2[C@H]1C(=O)O` [Ampicillin, ampicillin, reference compound], the “log(IC50) GroEL/ES-dRho Refolding” value on E. coli GroEL/ES (setting [2]) was above 2. For the same compound, the IC50 on E. coli GroEL/ES (setting [3]) was above 100 µM. For the same compound, the CC50 with HEK 293 kidney cells was above 100 µM.
In the case of `O=C(Nc1ccc(Sc2nc3ccccc3s2)cc1)c1cc(Br)cc(Br)c1O` [Compound 5, N-(4-(Benzo[d]thiazol-2-ylthio)phenyl)-3,5-dibromo-2-hydroxybenzamide], the IC50 on E. coli GroEL/ES (setting [4]) is 1.32 µM; on E. coli GroEL/ES (setting [3]) it was 1.3 µM. Moreover, in data set [1] (ATCC25923, 24 h), the EC50 turned out to be 0.54 µM.
`O=C(Nc1ccccc1)c1cc(Br)cc(Br)c1O` [Compound 13, 3,5-Dibromo-2-hydroxy-N-phenylbenzamide] gave an IC50 against E. coli GroEL/ES above 100 µM. For the same compound, the “log(IC50) GroEL/ES-dRho Refolding” value on E. coli GroEL/ES (setting [2]) was above 2. For the same compound, the CC50 with HEK 293 kidney cells is 34 µM.
Take `O=C(Nc1cccc(Cl)c1)c1cc(Br)ccc1O` [Compound 11, 5-Bromo-N-(3-chlorophenyl)-2-hydroxybenzamide]: on E. coli GroEL/ES, the IC50 is above 100 µM. The “log(IC50) GroEL/ES-dRho Refolding” value on E. coli GroEL/ES (setting [2]) is above 2. Besides, the EC50 in data set [1] (ATCC25923, 24 h) amounted to 0.44 µM.
`Cc1cc(C(C#N)c2ccc(Cl)cc2)c(Cl)cc1NC(=O)c1cc(I)cc(I)c1O` (stereo not shown) [Closantel, closantel, reference compound]: the IC50 against E. coli GroEL/ES is 1.55 µM; on E. coli GroEL/ES (setting [3]) it was 1.5 µM. Further, the 50% cytotoxic concentration (CC50) in the data set on HEK 293 kidney cells was determined as 75 µM.
